Among the data in patent US20240059658A1 (Emory University, priority 2019, published 2024) are IC50 values, retold here.

pIC50: −log10 of the molar value. Read-outs that look alike come from different tables or passages of the source.

For the data set, the system named is EU-1. Nature of the data set: WST cytotoxicity assay, cancer cell EU-1. As to conditions: no other cell line named in the cell, read-out: Cancer cell (EU-1) cytotoxicity IC50. It is filed as cell-based, human. The procedure: This study used two ALL cell lines (EU-1 and EU-3) and three NB cell lines (NB-1643, SHEP1 and LA1-55N). All 5 cancer cell lines were established from pediatric ALL or NB patients and were well-characterized for their expression of MDM2 and p53-status, as reported previously. All cell lines were grown in standard culture medium (RPMI 1640 containing 10% FBS, 2 mmol/L L-glutamine, 50 U penicillin and 50 μg/mL streptomycin) at 37° C. in a humidified atmosphere containing 5% CO2.
The cytotoxic effect of MX 69 and MX69 analogs on cancer cells was determined using the water-soluble tetrazolium salt (WST) assay. Briefly, cells cultured in 96-well microtiter plates were treated with different concentrations of AQ-101 for a 20-h period. WST (25 μg/well) was then added and incubation continued for an additional 4 h, after which optical density (OD) was read with a microplate reader (test wavelength of 450 nm; reference wavelength of 620 nm).

As to `Cc1ccc(NS(=O)(=O)c2ccc3c(c2)C2OCC[C@H]2C(c2ccc(C(=O)C(C)C)cc2)N3)cc1` (stereo in doubt) [Compound 69L85, 4-(4-isobutyrylphenyl)-N-(p-tolyl)-2,3,3a,4,5,9b-hexahydrofuro[3,2-c]quinoline-8-sulfonamide], the pIC50 (Homo sapiens, EU-1, EU-1) is 5.48. Same read-out and setting: for `CC(C)C(=O)c1ccc([C@@H]2Nc3ccc(S(=O)(=O)Nc4ccc(C(F)(F)F)c(C(F)(F)F)c4)cc3C3OCC[C@H]32)cc1` (stereo in doubt) [Compound 69L92, N-(3,4-bis(trifluoromethyl)phenyl)-4-(4-isobutyrylphenyl)-2,3,3a,4,5,9b-hexahydrofuro[3,2-c]quinoline-8-sulfonamide] the value was below 5.00; for `CCC(=O)c1cccc(NS(=O)(=O)c2ccc3c(c2)C2OCC[C@H]2C(c2ccc4c(c2)CCO4)N3)c1` (stereo in doubt) [Compound 69L127, 4-(2,3-dihydrobenzofuran-5-yl)-N-(3-propionylphenyl)-2,3,3a,4,5,9b-hexahydrofuro[3,2-c]quinoline-8-sulfonamide], 5.32. Turning to `Cc1ccc(N(C)S(=O)(=O)c2ccc3c(c2)[C@H]2OCC[C@H]2C(c2ccc(C(=O)C(C)C)cc2)N3C)cc1C` (stereo in doubt) [Compound 69L131, N-(3,4-dimethylphenyl)-4-(4-isobutyrylphenyl)-N,5-dimethyl-2,3,3a,4,5,9b-hexahydrofuro[3,2-c]quinoline-8-sulfonamide], the pIC50 (Homo sapiens, EU-1, EU-1) was 5.94. Turning to `Cc1ccc(N(C)S(=O)(=O)c2ccc3c(c2)[C@H]2OCC[C@H]2[C@@H](c2ccc(C(=O)C(C)C)cc2)N3)cc1C` (stereo in doubt) [Compound 69L132, N-(3,4-dimethylphenyl)-4-(4-isobutyrylphenyl)-N-methyl-2,3,3a,4,5,9b-hexahydrofuro[3,2-c]quinoline-8-sulfonamide], for the setting “Homo sapiens, EU-1, EU-1”, the pIC50 is 5.80.

Turning to `Cc1ccc(N(C)S(=O)(=O)c2ccc3c(c2)[C@H]2OCC[C@H]2[C@H](c2ccc(C(=O)C(C)C)cc2)N3)cc1C` (stereo in doubt) [Compound 69L133, N-(3,4-dimethylphenyl)-4-(4-isobutyrylphenyl)-N-methyl-2,3,3a,4,5,9b-hexahydrofuro[3,2-c]quinoline-8-sulfonamide], the pIC50 (Homo sapiens, EU-1, EU-1) was 5.80.

Take `Cc1ccc(S(=O)(=O)Nc2ccc3c(c2)[C@H]2OCC[C@H]2C(c2ccc(C(=O)C(C)C)cc2)N3)cc1C` (stereo in doubt) [Compound 69L162, N-(4-(4-isobutyrylphenyl)-2,3,3a,4,5,9b-hexahydrofuro[3,2-c]quinolin-8-yl)-3,4-dimethylbenzenesulfonamide]: the pIC50 (Homo sapiens, EU-1, EU-1) is below 5.30.

For the compound `CC(=O)c1cccc(NS(=O)(=O)c2ccc3c(c2)C2NCC[C@H]2[C@H](c2ccc(C(=O)C(C)C)cc2)N3)c1` (stereo partly drawn) [69L130 cis], for the setting “Homo sapiens, EU-1, EU-1”, the pIC50 is below 5.00. `CC(=O)c1cccc(NS(=O)(=O)c2ccc3c(c2)C2NCC[C@H]2[C@@H](c2ccc(C(=O)C(C)C)cc2)N3)c1` (stereo partly drawn) [69L130 trans]: where the note is “Homo sapiens, EU-1, EU-1”, the pIC50 is below 5.00.

`COC(=O)c1ccc([C@@H]2Nc3ccc(S(=O)(=O)Nc4ccc(C)c(C)c4)cc3[C@H]3OCC[C@H]32)cc1` [Compound 69L2]: the pIC50 (Homo sapiens, EU-1, EU-1) is 5.28 to 5.46. The same measure, in the same setting: for `COC(=O)c1ccc([C@@H]2Nc3ccc(S(=O)(=O)Nc4ccc(C)c(C)c4)cc3[C@H]3c4ccccc4C[C@H]32)cc1` [Compound 69L3] the value was 4.74. The same measure, in the same setting: as for `Cc1ccc(NS(=O)(=O)c2ccc3c(c2)[C@H]2OCC[C@H]2C(c2ccc(C(=O)O)cc2)N3)cc1C` (stereo partly shown) [Compound 69L4], the figure is below 4.30; as for `Cc1ccc(NS(=O)(=O)c2ccc3c(c2)[C@H]2OCC[C@H]2[C@H](c2ccc(C(=O)O)cc2)N3)cc1C` [Compound 69L5], below 4.30; as for `Cc1ccc(NS(=O)(=O)c2ccc3c(c2)[C@H]2c4ccccc4C[C@H]2[C@H](c2ccc(C(=O)O)cc2)N3)cc1C` [Compound 69L6], 4.69.

In the case of `Cc1ccc(NS(=O)(=O)c2ccc3c(c2)[C@H]2c4ccccc4C[C@H]2[C@H](c2ccc(Br)cc2)N3)cc1C` [Compound 69L7], the pIC50 (Homo sapiens, EU-1, EU-1) is below 4.30. As to `Cc1ccc(NS(=O)(=O)c2ccc3c(c2)[C@H]2OCC[C@H]2C(c2ccc(Br)cc2)N3)cc1C` (stereo partly shown) [Compound 69L8], the pIC50 (Homo sapiens, EU-1, EU-1) is 5.44. In the case of `COC(=O)c1ccc(C2Nc3ccc(S(=O)(=O)Nc4ccc(C)c(C)c4)cc3[C@H]3OCCC[C@@H]23)cc1` (stereo partly shown) [Compound 69L9], the pIC50 (Homo sapiens, EU-1, EU-1) is 5.34. On to `Cc1ccc(NS(=O)(=O)c2ccc3c(c2)[C@H]2OCCC[C@H]2C(c2ccc(C(=O)O)cc2)N3)cc1C` (stereo partly shown) [Compound 69L10], for which the pIC50 (Homo sapiens, EU-1, EU-1) is below 4.30. With `COC(=O)c1ccc([C@H]2Nc3ccc(S(=O)(=O)Nc4ccc(C)c(C)c4)cc3C3OCCC32)cc1` (stereo partly shown) [Compound 69L12], the pIC50 (Homo sapiens, EU-1, EU-1) is 5.41 to 5.52. As to `COC(=O)c1ccc([C@@H]2Nc3ccc(S(=O)(=O)Nc4ccc(C)c(C)c4)cc3[C@H]3OCC[C@H]32)cc1` [Compound 69L13], the pIC50 (EU-1) was 5.05 to 5.19.

In the case of `COC(=O)c1ccc([C@@]2(N)C[C@H](c3ccc(Cl)cc3)c3cc(S(=O)(=O)Nc4ccc(C)c(C)c4)ccc3N2)cc1` [Compound 69L14], the pIC50 (Homo sapiens, EU-1, EU-1) is below 4.30. With `Cc1ccc(NS(=O)(=O)c2ccc3c(c2)[C@H]2OCC[C@H]2C(c2ccc(-n4ccccc4=O)cc2)N3)cc1C` (stereo partly shown) [Compound 69L15], the negative-log IC50 (pIC50) (Homo sapiens, EU-1, EU-1) was 4.75.

On to `COC(=O)c1ccc([C@@H]2Nc3ccc(S(=O)(=O)Nc4ccc(C)c(C)c4)cc3[C@H]3C=CC[C@H]32)cc1` [Compound 69L16], for which the pIC50 (Homo sapiens, EU-1, EU-1) was 5.33.

With `Cc1ccc(NS(=O)(=O)c2ccc3c(c2)[C@H]2OCC[C@H]2C(c2ccc(B4OCC(C)(C)CO4)cc2)N3)cc1C` (stereo partly shown) [Compound 69L17], where the note is “Homo sapiens, EU-1, EU-1”, the pIC50 is 5.06.

On to `Cc1ccc(NS(=O)(=O)c2ccc3c(c2)[C@H]2OCC[C@H]2C(c2ccc(B(O)O)cc2)N3)cc1C` (stereo partly shown) [Compound 69L18], for which the pIC50 (Homo sapiens, EU-1, EU-1) was 4.83. As for `Cc1ccc(NS(=O)(=O)c2ccc3c(c2)[C@H]2OCC[C@H]2C(c2ccc(S(C)(=O)=O)cc2)N3)cc1C` (stereo partly shown) [Compound 69L19], under “Homo sapiens, EU-1, EU-1”, the pIC50 is 5.39.

In the case of `Cc1ccc(NS(=O)(=O)c2ccc3c(c2)[C@H]2C=CC[C@H]2[C@H](c2ccc(S(C)(=O)=O)cc2)N3)cc1C` [Compound 69L21], the pIC50 (Homo sapiens, EU-1, EU-1) was 5.21. Regarding `COC(=O)c1ccc([C@@H]2Nc3cc(Cl)c(S(=O)(=O)Nc4ccc(C)c(C)c4)cc3[C@H]3C=CC[C@H]32)cc1` [Compound 69L22], the pIC50 (Homo sapiens, EU-1, EU-1) was 4.71. For `Cc1ccc(NS(=O)(=O)c2ccc3c(c2Cl)[C@H]2C=CC[C@H]2[C@H](c2ccc(S(C)(=O)=O)cc2)N3)cc1C` [Compound 69L23], under “Homo sapiens, EU-1, EU-1”, the pIC50 was 4.63.

In the case of `Cc1ccc(NS(=O)(=O)c2cc3c(cc2Cl)N[C@@H](c2ccc(S(C)(=O)=O)cc2)[C@@H]2CC=C[C@H]32)cc1C` [Compound 69L24], the pIC50 (Homo sapiens, EU-1, EU-1) was below 4.30. On to `COC(=O)c1ccc([C@H]2Nc3cc(Cl)c(S(=O)(=O)Nc4ccc(C)c(C)c4)cc3[C@H]3OCC[C@@H]23)cc1` [Compound 69L25], for which the pIC50 (Homo sapiens, EU-1, EU-1) is below 4.30. Consider `COC(=O)c1ccc([C@@H]2Nc3cc(Cl)c(S(=O)(=O)Nc4ccc(C)c(C)c4)cc3[C@H]3OCC[C@H]32)cc1` [Compound 69L26], for which, under “Homo sapiens, EU-1, EU-1”, the pIC50 was below 4.30. As to `COC(=O)c1ccc([C@H]2Nc3ccc(S(=O)(=O)Nc4ccc(C)c(C)c4)cc3[C@H]3OCC[C@@H]23)cc1` [Compound 69L28], the pIC50 (Homo sapiens, EU-1, EU-1) is 4.92 to 5.08. Consider `COC(=O)c1ccc([C@@H]2Nc3ccc(S(=O)(=O)Nc4ccc(C)c(C)c4)cc3[C@@H]3OCC[C@H]23)cc1` [Compound 69L29], for which the pIC50 (Homo sapiens, EU-1, EU-1) is 5.57 to 5.70.
